# ChEMBL document CHEMBL1136305, “Structure-activity relationships within a series of caspase inhibitors: effect of leaving group modifications” (Bioorg Med Chem Lett, 2003)
# What was measured:
# Caspase-6 (Homo sapiens) = target: T1, Caspase-6 (Homo sapiens) (UniProt P55212); test: Inhibitory activity against caspase-6 (Csp-6)
# T1 sequence (whole entry): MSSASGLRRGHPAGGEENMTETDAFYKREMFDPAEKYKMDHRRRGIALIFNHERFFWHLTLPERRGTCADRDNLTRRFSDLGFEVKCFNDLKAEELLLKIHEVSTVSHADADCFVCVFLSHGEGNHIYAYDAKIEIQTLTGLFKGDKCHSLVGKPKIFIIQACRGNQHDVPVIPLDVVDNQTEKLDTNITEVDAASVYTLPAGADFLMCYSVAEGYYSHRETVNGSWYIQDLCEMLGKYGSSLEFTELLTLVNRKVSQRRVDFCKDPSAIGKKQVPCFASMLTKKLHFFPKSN
# Caspase-1 (Mus musculus) = target: T2, Caspase-1 (Mus musculus) (UniProt P29452); test: Inhibitory activity against murine caspase-1
# T2 sequence (whole entry): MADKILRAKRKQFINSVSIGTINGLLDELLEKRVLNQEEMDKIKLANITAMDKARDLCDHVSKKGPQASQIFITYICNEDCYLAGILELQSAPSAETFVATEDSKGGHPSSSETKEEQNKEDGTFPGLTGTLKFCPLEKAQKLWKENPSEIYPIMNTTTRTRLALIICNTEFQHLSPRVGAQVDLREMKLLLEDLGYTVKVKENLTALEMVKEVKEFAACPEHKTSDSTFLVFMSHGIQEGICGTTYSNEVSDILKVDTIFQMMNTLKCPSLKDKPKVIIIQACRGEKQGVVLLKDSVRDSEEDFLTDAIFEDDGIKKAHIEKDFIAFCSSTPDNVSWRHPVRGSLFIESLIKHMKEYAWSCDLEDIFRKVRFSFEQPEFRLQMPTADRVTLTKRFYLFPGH
# Caspase-3 (Homo sapiens) = target: T3, Caspase-3 (Homo sapiens) (UniProt P42574); test: Inhibitory activity against caspase-3 (Csp-3)
# T3 sequence (whole entry): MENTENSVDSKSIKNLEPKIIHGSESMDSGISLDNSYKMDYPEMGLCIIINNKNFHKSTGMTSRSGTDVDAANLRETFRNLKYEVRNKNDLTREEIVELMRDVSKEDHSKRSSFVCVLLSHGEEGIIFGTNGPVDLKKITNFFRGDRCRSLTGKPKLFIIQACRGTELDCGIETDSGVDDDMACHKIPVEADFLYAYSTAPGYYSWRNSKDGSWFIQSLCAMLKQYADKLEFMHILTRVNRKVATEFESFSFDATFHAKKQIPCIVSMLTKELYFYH
# Homo sapiens = species on record: Homo sapiens; test: Cellular assay in an inflammation model measuring IL1-beta secretion from isolated human monocytes induced with Staph A; assay type: functional
# Jurkat = test: Cellular assay in a Fas-induced model of apoptosis in Jurkat cells; assay type: functional, cell-based; details: Homo sapiens
# Caspase-8 (Homo sapiens) = Caspase-8 (Homo sapiens) (UniProt Q14790); test: Inhibitory activity against caspase-8 (Csp-8)
# Sequence of Caspase-8 (Homo sapiens) (Q14790 217-374 limits assumed): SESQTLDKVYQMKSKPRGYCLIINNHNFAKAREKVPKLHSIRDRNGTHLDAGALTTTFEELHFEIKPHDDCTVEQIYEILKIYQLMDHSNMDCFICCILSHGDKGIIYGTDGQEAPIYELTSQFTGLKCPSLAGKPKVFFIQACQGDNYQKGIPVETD
# Sequence of Caspase-8 (Homo sapiens) (Q14790 385-479 limits assumed): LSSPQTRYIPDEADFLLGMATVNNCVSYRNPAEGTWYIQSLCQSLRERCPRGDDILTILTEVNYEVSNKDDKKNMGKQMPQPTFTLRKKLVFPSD
# [1] = Cellular assay in a model of neuronal apoptosis involving cortical neurons exposed to concanavalin A; assay type: functional
SMILES,k3/Ki (Caspase-6 (Homo sapiens)),k3/Ki (Caspase-1 (Mus musculus)),k3/Ki (Caspase-3 (Homo sapiens)),IC50 (Homo sapiens),IC50 (Jurkat),k3/Ki (Caspase-8 (Homo sapiens)),IC50 [1]
CC(C)[C@H](NC(=O)COc1cccc2ccccc12)C(=O)N[C@@H](CC(=O)O)C(=O)COc1ccc2oc(=O)sc2c1,81 M⁻¹ s⁻¹,2240 M⁻¹ s⁻¹,5890 M⁻¹ s⁻¹,25.7 µM,> 100 µM,130 M⁻¹ s⁻¹,–
CC(C)[C@H](NC(=O)COc1cccc2ccccc12)C(=O)N[C@@H](CC(=O)O)C(=O)COc1ccc(C(N)=O)cc1,744 M⁻¹ s⁻¹,3650 M⁻¹ s⁻¹,17700 M⁻¹ s⁻¹,–,> 100 µM,–,> 50 µM
CC(C)[C@H](NC(=O)COc1cccc2ccccc12)C(=O)N[C@@H](CC(=O)O)C(=O)COc1cccc(C(F)(F)F)c1,–,2450 M⁻¹ s⁻¹,7980 M⁻¹ s⁻¹,16.6 µM,> 100 µM,150 M⁻¹ s⁻¹,> 50 µM
CC(C)[C@H](NC(=O)COc1cccc2ccccc12)C(=O)N[C@@H](CC(=O)O)C(=O)COc1ccccc1F,–,6020 M⁻¹ s⁻¹,26800 M⁻¹ s⁻¹,15.7 µM,> 100 µM,233 M⁻¹ s⁻¹,15 µM
CC(C)[C@H](NC(=O)COc1cccc2ccccc12)C(=O)N[C@@H](CC(=O)O)C(=O)COc1ccc(C(=O)c2ccccc2)cc1,–,1520 M⁻¹ s⁻¹,17700 M⁻¹ s⁻¹,–,> 100 µM,21 M⁻¹ s⁻¹,–
CC(C)[C@H](NC(=O)COc1cccc2ccccc12)C(=O)N[C@@H](CC(=O)O)C(=O)COc1ccc(F)cc1,–,9120 M⁻¹ s⁻¹,8560 M⁻¹ s⁻¹,14.3 µM,> 100 µM,699 M⁻¹ s⁻¹,> 50 µM
CC(C)[C@H](NC(=O)COc1cccc2ccccc12)C(=O)N[C@@H](CC(=O)O)C(=O)COc1cccc(F)c1F,1610 M⁻¹ s⁻¹,14800 M⁻¹ s⁻¹,28800 M⁻¹ s⁻¹,–,–,197 M⁻¹ s⁻¹,5.2 µM
CC(C)[C@H](NC(=O)COc1cccc2ccccc12)C(=O)N[C@@H](CC(=O)O)C(=O)COc1cccc(OC(F)(F)F)c1,–,1410 M⁻¹ s⁻¹,30600 M⁻¹ s⁻¹,15.4 µM,> 100 µM,359 M⁻¹ s⁻¹,> 50 µM
CC(C)[C@H](NC(=O)COc1cccc2ccccc12)C(=O)N[C@@H](CC(=O)O)C(=O)COc1cc(C(F)(F)F)cc(C(F)(F)F)c1,193 M⁻¹ s⁻¹,783 M⁻¹ s⁻¹,5350 M⁻¹ s⁻¹,–,> 100 µM,68 M⁻¹ s⁻¹,> 50 µM
CC(=O)Nc1cccc(OCC(=O)[C@H](CC(=O)O)NC(=O)[C@@H](NC(=O)COc2cccc3ccccc23)C(C)C)c1,–,612 M⁻¹ s⁻¹,4900 M⁻¹ s⁻¹,–,> 100 µM,–,> 50 µM

# More lines, now with the values ahead:
k3/Ki (Caspase-6 (Homo sapiens)),k3/Ki (Caspase-1 (Mus musculus)),k3/Ki (Caspase-3 (Homo sapiens)),IC50 (Homo sapiens),IC50 (Jurkat),k3/Ki (Caspase-8 (Homo sapiens)),IC50 [1],SMILES
13600 M⁻¹ s⁻¹,14700 M⁻¹ s⁻¹,56600 M⁻¹ s⁻¹,8.89 µM,3.05 µM,8040 M⁻¹ s⁻¹,–,CC(C)[C@H](NC(=O)COc1cccc2ccccc12)C(=O)N[C@@H](CC(=O)O)C(=O)COc1c(F)c(F)c(F)c(F)c1F
776 M⁻¹ s⁻¹,2360 M⁻¹ s⁻¹,10500 M⁻¹ s⁻¹,–,29.1 µM,2420 M⁻¹ s⁻¹,> 50 µM,CC(C)[C@H](NC(=O)COc1cccc2ccccc12)C(=O)N[C@@H](CC(=O)O)C(=O)COc1ccc(OC(F)(F)F)cc1
–,8400 M⁻¹ s⁻¹,21700 M⁻¹ s⁻¹,17.6 µM,33.2 µM,628 M⁻¹ s⁻¹,> 50 µM,CC(C)[C@H](NC(=O)COc1cccc2ccccc12)C(=O)N[C@@H](CC(=O)O)C(=O)COc1ccc(F)cc1F
81700 M⁻¹ s⁻¹,47100 M⁻¹ s⁻¹,188000 M⁻¹ s⁻¹,–,1.2 µM,17000 M⁻¹ s⁻¹,2.43 µM,CC(C)[C@H](NC(=O)COc1cccc2ccccc12)C(=O)N[C@@H](CC(=O)O)C(=O)COc1c(F)ccc(F)c1F
39700 M⁻¹ s⁻¹,143000 M⁻¹ s⁻¹,351000 M⁻¹ s⁻¹,3.48 µM,18.4 µM,59300 M⁻¹ s⁻¹,–,CC(C)[C@H](NC(=O)COc1cccc2ccccc12)C(=O)N[C@@H](CC(=O)O)C(=O)COP(=O)(c1ccccc1)c1ccccc1
